Several values for one entry are separate records, joined by “and”; a condition that tells them apart may be missing. Equal values may be shown once.

The values that follow come from PMC5684143, “New melanocortin-like peptide of E. coli can suppress inflammation via the mammalian melanocortin-1 receptor (MC1R): possible endocrine-like function for microbes of the gut” (NPJ Biofilms and Microbiomes, 2017).

One test has as its system Balb/C mice. Put plainly: CLP sepsis, survival and serum cytokines at 40 h (protocol B). The class given is in vivo. The conditions noted are these: one dose 5 mg/kg i.p. at 24 h. The method, then:
In vivo studies were performed in accordance with National Institutes of Health guidelines and with the approval of the North Shore-Long Island Jewish Health System’s Institutional Animal Care and Use Committee (IACUC). In mice, polymicrobial sepsis was induced by surgical ligation and perforation of the cecum, a widely used technique known as CLP. Briefly, male BALB/c mice (7–8 weeks old, 20–25 g) were anesthetized with a mixture of ketamine (100 mg/kg) and xylazine (8 mg/kg) intramuscularly, and a 15 mm midline incision was made to expose the cecum. After ligation of the cecum with a 6.0 silk suture below the junction of the ileo–cecal valve, the ligated cecal stump was perforated once with a 22-gauge needle. The cecum was then gently squeezed to extrude a small amount of feces through the perforation site. The cecum was restored to its normal intra-abdominal position, and the laparotomy was closed with 6.0 silk sutures. Immediately after CLP surgery, all animals were resuscitated with normal saline solution (subcutaneously 20 ml/kg body weight), and given a single dose of antibiotics (primaxin 0.5 mg/kg). In sham operated animals, the cecum was temporarily ligated, but the bowel was not punctured; these animals also received antibiotic treatment and resuscitation fluid. […] Survival was monitored twice daily for 2 weeks, at which time survivors were killed (CO2 asphyxia). […] Survival was monitored twice daily after surgery. […]
The levels of HMGB1 in the culture medium or murine serum were measured by western immunoblotting as previously described.[30] […] The relative band intensity was quantified by using the NIH image 1.59 software. The levels of HMGB1 (expressed as % maximum effect) were calculated with reference to standard curves generated with purified rHMGB1 and expressed as mean ± SEM of four experiments.
Concentrations of TNF and IL-6 were each determined using a commercially available enzyme-linked immunosorbent assay (ELISA) kit (R&D System Inc.) as previously described.[34] The levels of TNF or IL-6 were calculated with reference to standard curves. […]

Test [1] relates to RAW 264.7 cells. As to the kind of experiment: Peptidoglycan (PGN)-induced TNF release by RAW 264.7 cells. The test is classed as cell-based, murine. The conditions noted are these: picomolar range of peptide; waning inhibition at nanomolar concentrations. The method, then:
Murine macrophage-like RAW 264.7 cells were obtained from American Type Culture Collection, and were grown in Dulbecco’s Modified Eagle’s Medium (DMEM, Life Technologies) containing 10% (vol/vol) heat-inactivated fetal bovine serum (FBS, Hyclone Lab. Inc.), penicillin 100 U/ml, and streptomycin 100 μg/ml (BioWhittaker Inc.). Cells were suspended in medium and incubated in 24-well or 48-well tissue-culture plates overnight in a humidified incubator (37 °C, 5% CO2). Growth medium was removed and replaced by Opti-MEM I serum-free medium (Life Technologies) overnight. In the experiments, cell monolayers were stimulated with HMGB1 or LPS, in the absence or presence of MECO-1 or alpha-MSH; cell-free supernatants were assayed for TNF by ELISA or HMGB1 by western blotting.
Concentrations of TNF and IL-6 were each determined using a commercially available enzyme-linked immunosorbent assay (ELISA) kit (R&D System Inc.) as previously described.[34] The levels of TNF or IL-6 were calculated with reference to standard curves.
Fig. 2 Cytokine-induced TNF release inhibited by MECO-1. a Lipopolysaccharide (LPS), derived from the cell wall of Gram-negative bacteria, is a TLR4 and TLR2 agonist. RAW 264.7 cells were treated with MECO-1 and LPS simultaneously and incubated overnight. Supernatants were tested for TNF with ELISA. b Poly I:C, synthetic double stranded RNA, is recognized by TLR3. […]

For test [2], the system named is RAW 264.7 cells. As to the kind of experiment: Cyclic-AMP production in RAW 264.7 cells. The test is classed as cell-based, murine. The conditions noted are these: 30 min, 37 °C, 1 mM IBMX, four experiments per peptide, each value from separate experiment(s). The method, then:
RAW 264.7 cells were grown to confluence in culture plates, harvested by classical methods, and then seeded onto 48-well plates (1 × 10^6/ml). Cells were incubated with peptide at 37 °C in Opti-MEM I serum-free medium containing 1 mM 3-isobutyl-1-methylxanthine. At 30 min, cells were lysed in the original wells. The lysates were extracted from the wells, and cyclic-AMP measurements carried out using the Biotrak kit (cyclic-AMP Biotrak Enzymeimmunoassay System, Amersham Biosciences) including a standard cyclic-AMP curve as recommended by the suppliers.[35]
RAW 264.7 cells were incubated with peptides for 30 minutes at 37 degrees. Cell lysates were extracted and c-AMP measurements carried out using a commercial kit [c-AMP biotrack-immunoassay system, Amersham Biosciences] with a c-AMP standard curve as recommended by the suppliers. […] The only experiment with ACTH is shown above. (Effects of LPS at 4 nanograms per ml. or of HMGB1 at 0.1 µg. per ml. on ligand-stimulated c-AMP accumulation were quite modest and inconsistent). […]

On to “alpha-melanocyte-stimulating hormone [alpha-MSH]”, for which the “serum TNF and IL-6 in survivors at 40 h after CLP” value in the test on Balb/C mice (ELISA, p < 0.05 vs CLP alone) was “significantly muted responses”. The “animals surviving to 40 h after CLP” value in the test on Balb/C mice (n = 10, saline four out of nine) was “Six of ten”. In the test on Balb/C mice (western blot, saline three of four), the “animals with elevated serum HMGB1 at 40 h after CLP” value is “none”. Besides, the “inhibition of PGN-induced TNF release” value in the test on RAW 264.7 cells [1] is reported as “Up to 75%”. In the test on RAW 264.7 cells [2], the “peptide concentration at which statistically significant stimulation of cAMP was noted (single experiments)” value is 10^-9 M and 10^-10 M.
